Laboratory results published in patent publication US11358962B2, “2-hetaryl imidazol[1,2-a]pyridine derivatives” (Hoffmann-La Roche Inc., priority 2013, dated 2022).

Each compound was assayed on native tau aggregates (assay: TAU radioligand in vitro displacement assay ([3H]T808, autoradiography on human AD brain sections)). Details: compound 10 nM, radioligand [3H]T808 10 nM.
Assay type: binding
Source text: TAU Radioligand-In-Vitro Displacement Assay
This in vitro binding assay assesses the affinity of compounds for native tau aggregates.
AD human brains are purchased from Banner Sun Health Research Institute (Sun City, Ariz., USA). Pathological diagnosis of AD is made according to standard NIA-Reagan Institute criteria based on neuropathological data. The radioligand [^3H]T808 was synthesized in-house ([^3H]-2-[4-(2-Fluoro-ethyl)-piperidin-1-yl]-benzo[4,5]imidazo[1,2-a]pyrimidine, radiochemical purity 99.0%). As a reference cold T808 is used (2-[4-(2-Fluoro-ethyl)-piperidin-1-yl]-benzo[4,5]imidazo[1,2-a]pyrimidine). For the autoradiography FujiFilm Imaging Plates (BAS-IP TR 2025) are exposed to the sections and read with a FujiFilm IP reader (BAS-5000).
Ten μm thick human AD brain sections are generated with a cryostat (Leica CM3050) at −17° C. chamber temperature and −15° C. object temperature. Sections are transferred to Histobond+ microscope slides (Marienfeld Laboratory Glasware). After drying for 3 hours at room temperature the sections are stored at −20° C. The sections are incubated with the radioligand (10 nM) and the respective cold compound (at various concentrations) in 50 mM Tris buffer, pH 7.4 at room temperature for 30 min. After washing 3× 10 min at 4° C. in 50 mM Tris buffer, pH 7.4 and 3 quick dips in H2O dist. at 4° C. the sections are dried at 4° C. for 3 h. The sections are placed in a FujiFilm Cassette (BAS 2025), exposed with an Imaging Plate for five days and afterwards scanned with a resolution of […].
The signal intensity (Dens−PSL/mm2) in the region of interest (ROI) of the autoradiogram is quantified with the software MCID analysis (version 7.0, Imaging Research Inc.). The specific binding (SB) of [^3H]T808 binding in absence or in presence of a compound is calculated by subtracting the non-specific binding signal in the white matter, thus yielding SB[3H]T808 only and SBcompound. The % displacement by the various compounds is calculated as following: % displacement=100−(SBcompound/SB[3H]T808 only)*100. Validation Data
In each experiment cold T808 is used as a positive internal control. Co-incubation of equimolar amounts of hot and cold T808 is expected to reduce specific binding by approximately 50%.

SMILES	% displacement of [3H]T808 (10 nM) at 10 nM
Cc1cccc(-c2cn3ccc(N(C)CCF)cc3n2)c1 [Example 34, (2-Fluoro-ethyl)-methyl-(2-m-tolyl-imidazo[1,2-a]pyridin-7-yl)-amine]	41%
CN(CCF)c1ccn2cc(-c3ccc4c(c3)OCO4)nc2c1 [Example 39, (2-Benzo[1,3]dioxol-5-yl-imidazo[1,2-a]pyridin-7-yl)-(2-fluoro-ethyl)-methyl-amine]	42%
CN(C)c1ccc(-c2cn3ccc(N4CCC(F)CC4)cc3n2)cc1 [Example 41, {4-[7-(4-Fluoro-piperidin-1-yl)-imidazo[1,2-a]pyridin-2-yl]-phenyl}-dimethyl-amine]	18%
F[C@@H]1CCN(c2ccn3cc(-c4ccccc4)nc3c2)C1 [Example 42, 7-((R)-3-Fluoro-pyrrolidin-1-yl)-2-phenyl-imidazo[1,2-a]pyridine]	23%
CNc1ccn2cc(-c3cccc(OC)c3)nc2c1 [Example 44, [2-(3-Methoxy-phenyl)-imidazo[1,2-a]pyridin-7-yl]-methyl-amine]	29%
Cc1ccc(-c2cn3ccc(NCCF)cc3n2)cc1 [Example 46, (2-Fluoro-ethyl)-(2-p-tolyl-imidazo[1,2-a]pyridin-7-yl)-amine]	27%
Cc1cccc(-c2cn3ccc(NCCF)cc3n2)c1 [Example 47, (2-Fluoro-ethyl)-(2-m-tolyl-imidazo[1,2-a]pyridin-7-yl)-amine]	36%
CO[C@H]1CCN(c2ccn3cc(-c4cccc(C)c4)nc3c2)C1 [Example 48, 7-((S)-3-Methoxy-pyrrolidin-1-yl)-2-m-tolyl-imidazo[1,2-a]pyridine]	8%
FCOc1ccc(-c2cn3ccc(N4CCOCC4)cc3n2)cc1 [Example 49, 2-(4-Fluoromethoxy-phenyl)-7-morpholin-4-yl-imidazo[1,2-a]pyridine]	10%
FCCNc1ccn2cc(-c3ccc4c(c3)OCO4)nc2c1 [Example 51, (2-Benzo[1,3]dioxol-5-yl-imidazo[1,2-a]pyridin-7-yl)-(2-fluoro-ethyl)-amine]	35%
FCCC1CCN(c2ccn3cc(-c4ccccc4)nc3c2)CC1 [Example 58, 7-[4-(2-Fluoro-ethyl)-piperidin-1-yl]-2-phenyl-imidazo[1,2-a]pyridine]	12%
COc1cccc(-c2cn3ccc(N4CCC(F)CC4)cc3n2)c1 [Example 60, 7-(4-Fluoro-piperidin-1-yl)-2-(3-methoxy-phenyl)-imidazo[1,2-a]pyridine]	14%
COc1ccc(-c2cn3ccc(N(C)CCF)cc3n2)cc1 [Example 65, (2-Fluoro-ethyl)-[2-(4-methoxy-phenyl)-imidazo[1,2-a]pyridin-7-yl]-methyl-amine]	28%
CNc1ccn2cc(-c3ccc(OC)c(OC)c3)nc2c1 [Example 66, [2-(3,4-Dimethoxy-phenyl)-imidazo[1,2-a]pyridin-7-yl]-methyl-amine]	40%
COc1ccc(-c2cn3ccc(NC4CC4)cc3n2)cc1 [Example 67, Cyclopropyl-[2-(4-methoxy-phenyl)-imidazo[1,2-a]pyridin-7-yl]-amine]	34%
COc1ccc(-c2cn3ccc(NCCF)cc3n2)cc1OC [Example 73, [2-(3,4-Dimethoxy-phenyl)-imidazo[1,2-a]pyridin-7-yl]-(2-fluoro-ethyl)-amine]	21%
CNc1ccn2cc(-c3ccc(OC)cc3)nc2c1 [Example 74, [2-(4-Methoxy-phenyl)-imidazo[1,2-a]pyridin-7-yl]-methyl-amine]	44%
COc1ccc(-c2cn3ccc(NCCF)cc3n2)cc1 [Example 75, (2-Fluoro-ethyl)-[2-(4-methoxy-phenyl)-imidazo[1,2-a]pyridin-7-yl]-amine]	42%

Results, then the compound that gave them:

% displacement of [3H]T808 (10 nM) at 10 nM	SMILES
27%	Cc1cccc(-c2cn3ccc(N4CCOCC4)cc3n2)c1 [Example 35, 7-Morpholin-4-yl-2-m-tolyl-imidazo[1,2-a]pyridine]
23%	Cc1ccc(-c2cn3ccc(N4CCOCC4)cc3n2)cc1 [Example 36, 7-Morpholin-4-yl-2-p-tolyl-imidazo[1,2-a]pyridine]
60%	CNc1ccn2cc(-c3ccc4c(c3)OCO4)nc2c1 [Example 37, (2-Benzo[1,3]dioxol-5-yl-imidazo[1,2-a]pyridin-7-yl)-methyl-amine]
52%	CN(C)c1ccn2cc(-c3ccc4c(c3)OCO4)nc2c1 [Example 38, (2-Benzo[1,3]dioxol-5-yl-imidazo[1,2-a]pyridin-7-yl)-dimethyl-amine]
37%	Oc1ccc(-c2cn3ccc(N4CCC4)cc3n2)cc1 [Example 40, 4-(7-Azetidin-1-yl-imidazo[1,2-a]pyridin-2-yl)-phenol]
15%	CO[C@@H]1CCN(c2ccn3cc(-c4ccccc4)nc3c2)C1 [Example 43, 7-((R)-3-Methoxy-pyrrolidin-1-yl)-2-phenyl-imidazo[1,2-a]pyridine]
45%	CNc1ccn2cc(-c3ccc(OCF)cc3)nc2c1 [Example 45, [2-(4-Fluoromethoxy-phenyl)-imidazo[1,2-a]pyridin-7-yl]-methyl-amine]
20%	FCCNc1ccn2cc(-c3ccc(OCF)cc3)nc2c1 [Example 50, (2-Fluoro-ethyl)-[2-(4-fluoromethoxy-phenyl)-imidazo[1,2-a]pyridin-7-yl]-amine]
27%	Cc1ccc(-c2cn3ccc(N(C)C)cc3n2)cc1C [Example 52, [2-(3,4-Dimethyl-phenyl)-imidazo[1,2-a]pyridin-7-yl]-dimethyl-amine]
25%	CNc1ccn2cc(-c3ccc(C)c(C)c3)nc2c1 [Example 53, [2-(3,4-Dimethyl-phenyl)-imidazo[1,2-a]pyridin-7-yl]-methyl-amine]
30%	Cc1ccc(-c2cn3ccc(N4CCC4)cc3n2)cc1 [Example 54, 7-Azetidin-1-yl-2-p-tolyl-imidazo[1,2-a]pyridine]
27%	Cc1cccc(-c2cn3ccc(N4CCC4)cc3n2)c1 [Example 55, 7-Azetidin-1-yl-2-m-tolyl-imidazo[1,2-a]pyridine]
28%	CO[C@@H]1CCN(c2ccn3cc(-c4ccc(C)cc4)nc3c2)C1 [Example 56, 7-((R)-3-Methoxy-pyrrolidin-1-yl)-2-p-tolyl-imidazo[1,2-a]pyridine]
20%	Cc1ccc(-c2cn3ccc(N4CCC(F)CC4)cc3n2)cc1 [Example 57, 7-(4-Fluoro-piperidin-1-yl)-2-p-tolyl-imidazo[1,2-a]pyridine]
36%	CO[C@H]1CCN(c2ccn3cc(-c4ccccc4)nc3c2)C1 [Example 59, 7-((S)-3-Methoxy-pyrrolidin-1-yl)-2-phenyl-imidazo[1,2-a]pyridine]
25%	FC1CCN(c2ccn3cc(-c4ccc5c(c4)OCO5)nc3c2)CC1 [Example 68, 2-Benzo[1,3]dioxol-5-yl-7-(4-fluoro-piperidin-1-yl)-imidazo[1,2-a]pyridine]
22%	Cc1cccc(-c2cn3ccc(N4CCC(F)CC4)cc3n2)c1 [Example 69, 7-(4-Fluoro-piperidin-1-yl)-2-m-tolyl-imidazo[1,2-a]pyridine]
32%	FCOc1ccc(-c2cn3ccc(N4CCC4)cc3n2)cc1 [Example 70, 7-Azetidin-1-yl-2-(4-fluoromethoxy-phenyl)-imidazo[1,2-a]pyridine]
34%	CNc1ccn2cc(-c3ccc(SC)cc3)nc2c1 [Example 71, Methyl-[2-(4-methylsulfanyl-phenyl)-imidazo[1,2-a]pyridin-7-yl]-amine]
25%	Cc1ccc(-c2cn3ccc(NCCF)cc3n2)cc1C [Example 72, [2-(3,4-Dimethyl-phenyl)-imidazo[1,2-a]pyridin-7-yl]-(2-fluoro-ethyl)-amine]
31%	COc1cccc(-c2cn3ccc(NCCF)cc3n2)c1 [Example 76, (2-Fluoro-ethyl)-[2-(3-methoxy-phenyl)-imidazo[1,2-a]pyridin-7-yl]-amine]
